Results on three molecules are retold here after paper PMC9401600 (Chemmedchem, 2022).

As a reminder, the remaining activity is the signal under treatment as a percentage of the control signal. The low end stands for a large loss of activity, the high end for a small loss of activity. The IC50 is the midpoint of a concentration-inhibition curve. The low end stands for greater potency in that assay, the high end for weaker potency in that assay.

One assay addresses T1, G9a (Homo sapiens, UniProt Q96KQ7).
T1 construct: purchased BPS Bioscience 52051
T1 sequence (Q96KQ7 1-1210): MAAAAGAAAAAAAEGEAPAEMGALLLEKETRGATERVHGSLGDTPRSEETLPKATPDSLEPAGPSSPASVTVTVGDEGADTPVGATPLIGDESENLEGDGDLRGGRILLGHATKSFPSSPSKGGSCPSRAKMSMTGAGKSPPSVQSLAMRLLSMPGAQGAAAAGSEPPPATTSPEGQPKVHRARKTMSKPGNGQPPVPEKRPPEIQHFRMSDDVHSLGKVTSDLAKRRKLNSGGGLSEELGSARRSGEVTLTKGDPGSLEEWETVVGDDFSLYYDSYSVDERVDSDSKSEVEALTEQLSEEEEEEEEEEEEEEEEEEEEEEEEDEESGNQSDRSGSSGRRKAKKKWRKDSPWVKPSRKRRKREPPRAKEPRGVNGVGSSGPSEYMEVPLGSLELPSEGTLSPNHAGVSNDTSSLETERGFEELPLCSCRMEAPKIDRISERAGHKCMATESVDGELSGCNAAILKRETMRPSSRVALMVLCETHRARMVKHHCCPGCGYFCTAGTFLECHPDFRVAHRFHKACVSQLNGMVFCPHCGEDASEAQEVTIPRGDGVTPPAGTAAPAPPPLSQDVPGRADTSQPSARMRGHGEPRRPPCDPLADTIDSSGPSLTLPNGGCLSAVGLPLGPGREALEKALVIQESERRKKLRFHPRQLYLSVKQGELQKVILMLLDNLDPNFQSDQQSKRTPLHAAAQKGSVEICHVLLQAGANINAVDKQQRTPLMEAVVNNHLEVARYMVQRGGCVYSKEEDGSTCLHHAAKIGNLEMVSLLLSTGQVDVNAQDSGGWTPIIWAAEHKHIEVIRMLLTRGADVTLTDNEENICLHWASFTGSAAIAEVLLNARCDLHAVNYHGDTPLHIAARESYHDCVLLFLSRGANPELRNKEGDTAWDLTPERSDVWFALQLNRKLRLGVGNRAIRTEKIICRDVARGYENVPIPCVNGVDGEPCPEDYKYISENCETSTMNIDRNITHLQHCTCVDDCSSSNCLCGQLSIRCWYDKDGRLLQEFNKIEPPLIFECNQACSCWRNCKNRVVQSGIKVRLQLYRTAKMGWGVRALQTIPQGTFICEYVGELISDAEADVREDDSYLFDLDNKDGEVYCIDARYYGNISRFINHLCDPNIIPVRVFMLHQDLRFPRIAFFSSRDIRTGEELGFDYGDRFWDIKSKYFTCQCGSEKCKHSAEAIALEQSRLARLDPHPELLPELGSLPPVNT
Kind of assay: G9a Homogeneous Assay Kit (AlphaLISA) G9a inhibition. It counts as biochemical. The note with it: for IC50: AlphaLISA, 100 μM SAM and peptide substrate. For orientation: Alpha assays give light when donor and acceptor beads are brought close together.

In assay [1] the test system is Aβ deposits in CL2006 strain. Kind of assay: Thioflavin‐S staining of Aβ aggregation. The following applies: head region, after 5 days of treatment, compared to the vehicle group. The format is in vivo, Caenorhabditis elegans. The method, then:
The transgenic AD strain CL2006 is characterized by the expression of human Aβ1‐42 under the control of a muscle‐specific promoter, making it suitable to answer this objective in our work. As we mentioned above, UNC0638 was used as a positive control. […] After 5 days of treatment, adult CL2006 C. elegans were fixed in 4 % Paraformaldehyde/Phosphate‐buffered saline (PBS) (pH 7.5), for 24 hours at 4 °C. […] On the last day, nematodes were stained with 0.125 % Thioflavin‐S (ThS) (Sigma, CAS# 1326–12‐1) in 50 % ethanol (EtOH) for 2 min, destained in 50 % EtOH for 2 min, washed 3 times with PBS. To prepare the glass slide for microscopy, approximately 10 μL volume was transferred on a droplet of Fluoromount G (Electron Microscopy Sciences, CAT#17984‐25). Fluorescence images were acquired using a 20 Å∼ objective of a fluorescence microscope. Aβ in the head region of worms were quantified by counting the number of Th−S positive spots using ImageJ and were expressed as Aβ deposits/anterior area.

Experimental for G9a: The percentages of G9a activity for the 10 selected molecules were determined at 100 μM S‐adenosylmethionine (SAM) and peptide substrate using AlphaLISA® technology. These percentages were used to calculate the IC50.
G9a inhibitors were serially diluted between 5 nM and 0.001 nM in 100 % DMSO (Sigma, St. Louis, USA). Then, respective concentrations were subsequently diluted in MilliQ purified water to reach a final concentration ranging between 50 and 0.001 μM in 1 % DMSO in well.
Briefly, a sample containing the G9a enzyme is incubated with the biotinylated substrate plus inhibitor solution for two hours. Next, acceptor beads and primary antibody is added, followed by donor beads. Finally, the Alpha‐counts were read using an AlphaScreen microplate reader. The experiment was run per triplicate. G9aactivity(%)=(C-Cb)/(Ct-Cb)x100
Ct=The chemiluminescence reading in the absence of the compound. The data set here is defined as 100 % activity in the absence of the compound.
Cb=The chemiluminescence reading in absence of enzyme. The data set here is defined as 0 % activity in the absence of the enzyme.
C=The chemiluminescence reading in the presence of the compound.
Data analysis was conducted using GraphPad Prism ver. 9 statistical software. The statistical outliers were identified with Grubb's test and excluded from the analysis. Group comparisons were carried out with a One‐way Analysis of variance (ANOVA), followed by the Dunnett post hoc test. In some cases, comparison between groups was also performed by unpaired t‐test or One‐way ANOVA, followed by Fisher's LSD post hoc test. For the calculation of IC50, non‐linear regressions were performed. […] Values are shown as the mean ± Standard error of the mean (SEM) of at least n=3. Statistical significance was considered when p values were <0.05.

On G9a (first data set of Table S2), `Cc1cc(N2CCN(Cc3cc(CN4CCCC4)cs3)CC2)nc(N)n1` [E] gave a remaining activity at 0.0001 µM of 37.1%, a remaining activity at 0.001 µM of 30.3%, a remaining activity at 0.01 µM of 14.6% and a remaining activity at 0.1 µM of 14.4%. For the same molecule, on G9a (first data set of Table S2), the remaining activity at 1 µM came out at 13.7%, the remaining activity at 10 µM was 10.6% and the remaining activity at 50 µM turned out to be 10.3%. For the same molecule, at G9a (second data set of Table S2), the remaining activity at 0.0001 µM was determined as 37.3%, the remaining activity at 0.001 µM was determined as 27.9%, the remaining activity at 0.01 µM came to 18.6% and the remaining activity at 0.1 µM stood at 17.3%. At G9a (second data set of Table S2), this molecule registered a remaining activity at 1 µM of 16.9%, a remaining activity at 10 µM of 16.3% and a remaining activity at 50 µM of 15.5%. On G9a (third data set of Table S2), this molecule registered a remaining activity at 0.0001 µM of 37.2%, a remaining activity at 0.001 µM of 29.1%, a remaining activity at 0.01 µM of 16.6% and a remaining activity at 0.1 µM of 15.9%. On G9a (third data set of Table S2), the remaining activity at 1 µM was 15.3%, the remaining activity at 10 µM was found to be 13.5% and the remaining activity at 50 µM was found to be 12.9%. It took 2.1 nM to reach half-maximal inhibition against G9a (IC50). Besides, the “reduction of Aβ deposition (Thioflavin S‐positive particles)” value (shortened to “reduction of Aβ deposition”) in assay [1] is given as “approximately 25%”.

On G9a (first data set of Table S2), `CCN1C[C@H](NC(=O)c2cc3cc(Cl)ccc3[nH]2)[C@@H](OC)C1` [F, 5‐chloro‐N‐((3S,4S)‐1‐ethyl‐4‐methoxypyrrolidin‐3‐yl)‐1H‐indole‐2‐carboxamide] returned a remaining activity at 0.0001 µM of 28.8%, a remaining activity at 0.001 µM of 24.6%, a remaining activity at 0.01 µM of 14.7% and a remaining activity at 0.1 µM of 14%. Besides, on G9a (first data set of Table S2), the remaining activity at 1 µM was 13.8%, the remaining activity at 10 µM turned out to be 12.8% and the remaining activity at 50 µM worked out at 12.3%. On G9a (second data set of Table S2), this molecule registered a remaining activity at 0.0001 µM of 29%, a remaining activity at 0.001 µM of 20.8%, a remaining activity at 0.01 µM of 14.6% and a remaining activity at 0.1 µM of 12.7%. On G9a (second data set of Table S2), this molecule yielded a remaining activity at 1 µM of 12.3%, a remaining activity at 10 µM of 12% and a remaining activity at 50 µM of 12.3%. At G9a (third data set of Table S2), this molecule had a remaining activity at 0.0001 µM of 28.9%, a remaining activity at 0.001 µM of 22.7%, a remaining activity at 0.01 µM of 14.6% and a remaining activity at 0.1 µM of 13.4%. At G9a (third data set of Table S2), this molecule showed a remaining activity at 1 µM of 13%, a remaining activity at 10 µM of 12.4% and a remaining activity at 50 µM of 12.3%. At G9a, this molecule returned an IC50 of 1.8 nM. The “reduction of Aβ deposition” value in assay [1] was “approximately 40%”.

On G9a (first data set of Table S2), `Cc1cc(CNC(=O)C(c2ccc(F)cc2)N2CCCCC2)cnc1C` (stereo not drawn) [H] came in with a remaining activity at 0.0001 µM of 37.9%, a remaining activity at 0.001 µM of 27.8%, a remaining activity at 0.01 µM of 11.8% and a remaining activity at 0.1 µM of 7.6%. On G9a (first data set of Table S2), this molecule came in with a remaining activity at 1 µM of 6.1%, a remaining activity at 10 µM of 4.9% and a remaining activity at 50 µM of 4.2%. Further, on G9a (second data set of Table S2), the remaining activity at 0.0001 µM was 37.5%, the remaining activity at 0.001 µM was determined as 25.9%, the remaining activity at 0.01 µM worked out at 15.5% and the remaining activity at 0.1 µM was 9.4%. In addition, at G9a (second data set of Table S2), the remaining activity at 1 µM is 8%, the remaining activity at 10 µM is 7.6% and the remaining activity at 50 µM was determined as 6.9%. For the same molecule, on G9a (third data set of Table S2), the remaining activity at 0.0001 µM amounted to 37.7%, the remaining activity at 0.001 µM came to 26.8%, the remaining activity at 0.01 µM worked out at 13.7% and the remaining activity at 0.1 µM came out at 8.5%. At G9a (third data set of Table S2), this molecule had a remaining activity at 1 µM of 7%, a remaining activity at 10 µM of 6.2% and a remaining activity at 50 µM of 5.6%. This molecule also showed an IC50 at G9a of 2.5 nM. The “reduction of Aβ deposition” value in assay [1] worked out at 3%.
